# Results published in US20250064807A1, “Promoting Hair Growth and Treatment of Hair Loss or Excessive Hair Shedding” (Samson Clinical Pty Ltd, priority 2017, published 2025).
# Where “and” joins values, the source holds several entries; their conditions need not be identical. Equal entries are not always repeated. Entries after “also recorded” stand apart in the source; their conditions may differ. Where two headings read alike, the source gives them in different places.
# Legend:
# [1] = system: women aged 20-68 with Sinclair stages 2-5 FPHL; assay: Head to head study topical 5% minoxidil once daily vs oral minoxidil 1 mg daily, 24 weeks (data on file); assay type: in vivo, human; details: for additional hairs on scalp from increase in hair density: scalp area 630 cm^2; for mean increase in terminal hair count: 24 weeks
# women = assay: Hair count after 12 weeks of daily sublingual minoxidil troche (Example 6); assay type: in vivo, human; details: individual patients 1-3, listed as sublingual minoxidil
# [2] = Assessment of sublingual minoxidil on patient blood pressure (Example 5); details: 2.5 mg sublingual troche, 5 individuals, monitored 6 hours post administration
# [3] = cited from earlier work; for mean serum concentration after topical application: scalp, twice daily; for peak serum concentration: one hour post-dose
# men with MPHL = details: cited from earlier work
# [4] = for minoxidil in serum samples at steady state: 0.45 mg sublingually daily for a minimum of 6 weeks
# Procedure: (§1) Hair counts were performed on dermatoscopic images taken at baseline and after 6 weeks. […] Steady state serum levels were measured after 8 weeks of daily dosing. 13 patients had hair counts performed.
# [5] = cited from earlier work
# men and women with AGA = assay: Hair regrowth by macrophotography hair counts and global photography (Example 7); assay type: in vivo, human
# Procedure: Hair counts were performed on dermatoscopic images taken at baseline and after 6 weeks. […] Steady state serum levels were measured after 8 weeks of daily dosing.
# [6] = system: patients with FPHL or MPHL; assay: Randomized double-blind study of 0.45 mg sublingual minoxidil, week 8 interim hair assessments (Example 8); assay type: in vivo, human
# Procedure: Participants receive study medication for 24 weeks followed by a follow-up visit 4 weeks later.
# The aim is to enroll 40 participants.
# Number of participants completed Week 8: 12 (2 females, 10 males). […] This timepoint represents a third of the planned treatment period for the study (24 weeks). Data from these 12 participants have been analysed at the 8 week mark. Analysis was performed blind as the study is still ongoing.
# The minimum criteria for hair loss severity in female participants is a Grade 2 and maximum is Grade 5. ISA at Screening was Sinclair Scale 2 and 3 for each female participant. […] As the study is ongoing and medication blind still stands, the final outcome of change in hair density (at Week 24) cannot be concluded in this report. The minimum criteria for enrolment for male participants is Grade III-Vertex and maximum is VI.
# Standardized global photography are taken at Study Weeks 0 (prior to dispensing of medication) and 8. Subsequent Week 16, 24 and 28 visits will also include global photography. A vertex and frontal scalp photograph is taken from a fixed height with a dedicated SLR camera. Current collated global photographs for all 12 patients were assessed by a blinded assessor. Comparison photographs between Baseline and Week 8 was provided to the designated blinded assessor.
# Initial assessment of Dermatology Life Quality Index (DLQI) for males and Women's AGA Quality of Life Questionnaire (WAA-QOL): Responses by female participants was generally more negative corresponding to a higher score at both Baseline and Week 8 visits. The impact on Quality of Life was more pronounced in comparison to the male participants. […] A full score of 38 represented dissatisfaction with current hair growth. The mean score was 25 (SD: 2.19) at Week 0 and 24.7 (SD: 4.08) at Week 8. The median score from all 10 male participants was 24.5 and 25 respectively. Both female patients reported an average of Grade 3 with the Sinclair Scale (FIG. 1 above) at Baseline visit and subsequent Week 8 visit. This was consistent with the Investigator's grade of their hair loss severity.
# [7] = Stability and beyond use of minoxidil and compounded dosage forms; assay type: physicochemical; details: 110° C. for 30 minutes
# [8] = for blood pressure after first dose / at time of peak concentration: single sublingual dose 0.45 mg; for adverse events / side effects: sublingual minoxidil 0.45 mg, b166: 30 patients, 2 to 12 months
# Procedure: as §1
# [9] = Minoxidil serum levels after a single sublingual dose (Example 7); details: for minoxidil in the serum after 2 hours: single sublingual dose 0.45 mg
# [10] = 0.25 mg sublingual troche daily, 12 weeks
# [11] = 0.25 mg sublingual troche daily
# [12] = 0.45 mg sublingually daily, minimum 6 weeks, 13 patients
# [13] = 0.45 mg sublingually once daily
# [14] = Baseline vs Week 8, blinded assessor, blind not broken
# [15] = 30 patients, sublingual minoxidil for between 2 and 12 months
smiles,measurement,setting,value
"Nc1cc(N2CCCCC2)nc(N)[n+]1[O-] [minoxidil, 2,4-Diamino-6-piperidinopyrimidine 3-oxide]",additional hairs on scalp from increase in hair density,[1]; 7 hair/cm^2 increase (topical group),4600 hairs
same,additional hairs on scalp from increase in hair density,[1]; 27 hair/cm^2 increase (oral group),"17,000 hairs"
same,mean increase in terminal hair count,[1]; oral minoxidil 1 mg daily,27 /cm^2
same,mean increase in terminal hair count,[1]; topical 5% minoxidil once daily,7 /cm^2
same,terminal hair count at 12 weeks (figure legend),women; [10],123 and 186 and 71
same,vellus hair count at 12 weeks,women; [10],6 and 13
same,total hair count at 12 weeks,"women; 0.25 mg sublingual troche daily, 12 weeks, scalp section",129 and 199 and 84
same,increase in total hair count from baseline to 12 weeks,women; [11],21 hairs and 32 hairs and 23 hairs
same,percent increase in total hair count from baseline to 12 weeks,women; [11],19.4% and 19.2% and 37.7%
same,Hair Count at week 12,"women; Table 1, terminal hairs, 0.25 mg sublingual troche daily",71 and 123 and 186
same,Percentage increase,"women; Table 1, week 12 vs baseline terminal hair count",42% and 23% and 23.2%
same,"adverse symptoms, postural hypotension or change in blood pressure",[2],"No adverse symptoms, postural hypotension or change in blood pressure was noted"
same,mean serum concentration after topical application,[3]; 2% minoxidil (20 mg/ml),0.7 ng/mL
same,mean serum concentration after topical application,[3]; 5% minoxidil (50 mg/ml),1.8 ng/mL
same,absorption through the gastrointestinal tract,"[3]; in vivo, po",> 90%
same,peak serum concentration,[3]; oral dose 2.5 mg,18.5 ng/mL
same,peak serum concentration,[3]; oral dose 5 mg,41 ng/mL
same,highest serum level recorded,[3]; topical application,18.2 ng/mL
same,men with MPHL with arrest of hair loss or mild to moderate hair regrowth,men with MPHL; applied topically,approximately 60%
same,average increase in hair count,"men with MPHL; topical, 5% concentration, 12 months",12.3%
same,adverse events at Week 8 visit,"0.45 mg sublingual once daily, 12 participants, blind not broken",No significant adverse events
same,"blood pressure readings, day of randomization vs Week 8",12 participants,not significant
same,respiratory rate and tympanic temperature,12 participants,within normal range
same,safety blood profile,"Week 8, 12 participants",within the normal range
same,minoxidil in serum samples at steady state,[4],No minoxidil was detected
same,minoxidil in serum samples at steady state,[4]; listed as sublingual minoxidil,not detected
same,accumulation with continuous dosing,[4]; continuous sublingual dosing,does not accumulate
same,effect on blood pressure in hypertensive patients,"[5]; oral, 5 to 100 mg daily",profound reduction in blood pressure
same,effect on blood pressure of normotensive individuals,"[5]; oral, 5 to 100 mg daily",minimal effect
same,effect on blood pressure or pulse rate,[5]; topical,minimal effect
same,serum concentration threshold for any hemodynamic response,"[5]; twelve hour steady state intravenous infusions (Ferry et al., 1996)",20 ng/mL
same,"change in hair counts on frontal and vertex areas, all patients","men and women with AGA; 0.45 mg sublingually daily, 6 weeks, 13 patients",increased terminal hairs; also recorded: increase in hair counts
same,"hair density, clinic assessment","men and women with AGA; 0.45 mg sublingually daily, minimum 6 weeks, 2 patients",moderate increase (+2)
same,mean increase in frontal scalp terminal hairs,men and women with AGA; [12],69.13 hairs/cm^2
same,mean increase in vertex scalp terminal hairs,men and women with AGA; [12],97.38 hairs/cm^2
same,range of increase in frontal scalp terminal hairs,men and women with AGA; [12],4-133 hairs/cm^2
same,range of increase in vertex scalp terminal hairs,men and women with AGA; [12],31-253 hairs/cm^2
same,hair regrowth compared with topical or oral minoxidil,men and women with AGA; [13],greater and detected earlier
same,increase from baseline in hair count on the vertex scalp,men and women with AGA; [13],52.5%
same,increase from baseline in hair count over the frontal scalp,men and women with AGA; [13],36.5%
same,hair regrowth compared with topical or oral minoxidil,"men and women with AGA; 0.45 mg sublingually once daily, listed as sublingual minoxidil",grows more hair
same,"midline hair density, blinded assessment of global photography","men and women with AGA; 0.45 mg sublingually, 8 weeks, 5 of the patients",slight increase
same,scalp global photographs at 6 weeks,"men and women with AGA; 0.45 mg sublingually, all patients",either mild or moderate improvement
same,"Investigator scalp assessment, Sinclair Scale, change at Week 8","[6]; 0.45 mg sublingual once daily, individual female participants, blind not broken, listed as sublingual minoxidil",slight increase from grade 3 to 2; also recorded: no change
same,Men's Hair Growth Questionnaire median score at Week 8,[6]; 10 male participants,25
same,"Men's Hair Growth Questionnaire scores, Week 0 vs Week 8",[6]; 10 male participants,No significant difference
same,Men's Hair Growth Questionnaire mean score at Week 8,"[6]; 10 male participants, full score 38 = dissatisfaction",24.7 (SD: 4.08)
same,participants (of 12) whose assessment suggests a slight to moderate increase in hair density,[6]; [14],Eight
same,participants (of 12) whose global photography suggests a decrease in hair density,[6]; [14],2 participants
same,patient reported Sinclair Scale grade at Week 8 (average),"[6]; both female patients, same at Baseline",3 Grade
same,thermal stability,[7],stable
same,biochemical abnormality,[8]; [15],No biochemical abnormality was detected
same,"hypertrichosis, tachycardia, fluid retention or postural hypotension",[8]; [15],"No patient developed hypertrichosis, tachycardia, fluid retention or postural hypotension"
same,mean blood pressure,[8]; [15],no reduction
same,blood pressure after first dose / at time of peak concentration,[8],unaffected
same,blood pressure after first dose / at time of peak concentration,[8]; listed as sublingual minoxidil,no change
same,adverse events / side effects,[8],No adverse events were noted
same,adverse events / side effects,[8]; listed as sublingual minoxidil,No side effects were reported
same,minoxidil in the serum after 2 hours,[9],no detectable minoxidil; also recorded: undetectable
same,minoxidil in the serum after 2 hours,[9]; listed as sublingual minoxidil,no detectable minoxidil
same,circulating minoxidil after 1 hour,[9]; sublingual dosing,undetectable
